Source: ChEMBL document CHEMBL5131491, “N6-modification of 7-Deazapurine nucleoside analogues as Anti-Trypanosoma cruzi and anti-Leishmania agents: Structure-activity relationship exploration and In vivo evaluation” (Eur J Med Chem, 2022)

Legend:
[1] = Cytotoxicity against human MRC5 fibroblast cells assessed as reduction in cell viability measured after 3 days by fluorometry; type: toxicity, cell-based; details: time 3 day
Trypanosoma cruzi [2] = assay: Antitrypanosomal activity against intracellular Trypanosoma cruzi Tulahuen amastigotes expressing CL2 beta-galactosidase in human MRC5 cells assessed as parasite growth inhibition using chlorophenol red beta-D-galactopyranoside as substrate treated for 7 days by spectrophotometry; type: functional, organism-based; details: MRC5, 168 h
[3] = Selectivity index, ratio of CC50 for human MRC-5 cells to EC50 for antitrypanosomal activity against intracellular Trypanosoma cruzi Tulahuen amastigotes expressing CL2 beta-galactosidase in human MRC5 cells; type: toxicity, cell-based; details: read-out: Selectivity Index
Leishmania infantum = assay: Antileishmanial activity against intracellular Leishmania infantum MHOM/MA(BE)/67 amastigotes infected in Swiss mouse peritoneal macrophages assessed as parasite growth inhibition incubated for 5 days by giemsa staining based microscopic analysis; type: functional, organism-based; details: MHOM/MA(BE)/67, Macrophage, 120 h
[4] = Cytotoxicity against Swiss mouse peritoneal macrophages assessed as reduction in cell viability measured after 5 days by microscopic analysis; type: toxicity, cell-based, Macrophage; details: time 5 day
[5] = Selectivity index, ratio of CC50 for Swiss mouse peritoneal macrophages to EC50 for antileishmanial activity against intracellular Leishmania infantum MHOM/MA(BE)/67 amastigotes infected in Swiss mouse peritoneal macrophages; type: toxicity, cell-based; details: read-out: Selectivity Index
Trypanosoma cruzi [6] = assay: Antitrypanosomal activity against Trypanosoma cruzi Y strain infected in acute CD Swiss Webster mouse model assessed as reduction in parasitemia at 100 mg/kg, po qd for 5 consecutive days by light microscopy relative to control; type: functional; parameters: scale not given: the % may be the effect or the level left; details: time 5 day
[7] = Toxicity in acute CD Swiss Webster mouse model infected with Trypanosoma cruzi Y strain assessed as animal survival at 100 mg/kg, po qd for 5 consecutive days measured daily for upto 30 days post-treatment; type: organism-based; details: in vivo, 720 h, time < 30 day

SMILES | CC50 at 72 h [1] | EC50 (Trypanosoma cruzi [2]) | selectivity ratio [3] | EC50 (Leishmania infantum) | CC50 at 120 h [4] | selectivity ratio [5] | Activity (Trypanosoma cruzi [6]) | Survival [7]
OC[C@H]1O[C@@H](n2ccc3c(Nc4ccccc4)ncnc32)[C@H](O)[C@@H]1O | > 64 µM | 7.89 µM | > 8.11 | 1.37 µM | 2 µM | 1.46 | – | –
CCN(CC)c1ncnc2c1ccn2[C@@H]1O[C@H](CO)[C@@H](O)[C@H]1O | > 64 µM | > 64 µM | – | > 64 µM | 64 µM | – | – | –
OC[C@H]1O[C@@H](n2ccc3c(NC4CCCCC4)ncnc32)[C@H](O)[C@@H]1O | 44.6 µM | 7.82 µM | 5.7 | 19.3 µM | > 64 µM | > 3.32 | – | –
OC[C@H]1O[C@@H](n2ccc3c(N4CCCCC4)ncnc32)[C@H](O)[C@@H]1O | > 64 µM | 7.74 µM | > 8.27 | 1.11 µM | 2 µM | 1.8 | – | –
OC[C@H]1O[C@@H](n2ccc3c(N4CCOCC4)ncnc32)[C@H](O)[C@@H]1O | > 64 µM | > 64 µM | – | > 64 µM | > 64 µM | – | – | –
CCCCCCCCCCCCCCCCOP(=O)([O-])OCC[N+](C)(C)C [MILTEFOSINE] | – | – | – | 8.3 µM | – | – | – | –
OC[C@H]1O[C@@H](n2ccc3c(NCc4ccccc4)ncnc32)[C@H](O)[C@@H]1O | > 64 µM | 7.48 µM | > 8.56 | 1.09 µM | 5 µM | 4.59 | – | –
Nc1cnc2c(ccn2[C@@H]2O[C@H](CO)[C@@H](O)[C@H]2O)c1 | > 64 µM | > 64 µM | 7.9 | > 64 µM | > 64 µM | – | – | –
OC[C@H]1O[C@@H](n2ccc3c(NC4CCCC4)ncnc32)[C@H](O)[C@@H]1O | > 64 µM | 14.5 µM | > 4.41 | 35 µM | > 64 µM | > 1.83 | – | –
OC[C@H]1O[C@@H](n2ccc3c(N4CCC4)ncnc32)[C@H](O)[C@@H]1O | > 64 µM | 6.67 µM | > 9.6 | > 64 µM | 64 µM | – | – | –
OC[C@H]1O[C@@H](n2ccc3c(N4CCCC4)ncnc32)[C@H](O)[C@@H]1O | > 64 µM | > 64 µM | – | > 64 µM | 64 µM | – | – | –
CCCNc1ncnc2c1ccn2[C@@H]1O[C@H](CO)[C@@H](O)[C@H]1O | > 64 µM | 14.2 µM | > 4.51 | > 64 µM | > 64 µM | – | – | –
OC[C@H]1O[C@@H](n2ccc3c(NC4CC4)ncnc32)[C@H](O)[C@@H]1O | > 64 µM | 2.28 µM | > 28.1 | 0.36 µM | 1.25 µM | 3.47 | – | –
Nc1ccnc2c1ccn2[C@@H]1O[C@H](CO)[C@@H](O)[C@H]1O | 17.9 µM | 2.27 µM | > 47.1 | 38.9 µM | > 64 µM | > 1.65 | – | –
CC(C)Nc1ncnc2c1ccn2[C@@H]1O[C@H](CO)[C@@H](O)[C@H]1O | > 64 µM | > 64 µM | – | > 64 µM | > 64 µM | – | – | –
Nc1nc(N)c2ccn([C@@H]3O[C@H](CO)[C@@H](O)[C@H]3O)c2n1 | > 64 µM | 1.36 µM | 6.6 | 21.4 µM | > 64 µM | > 2.99 | – | –
O=C(Cn1ccnc1[N+](=O)[O-])NCc1ccccc1 [BENZNIDAZOLE] | – | – | – | – | – | – | 100% | Non-Toxic
CCNc1ncnc2c1ccn2[C@@H]1O[C@H](CO)[C@@H](O)[C@H]1O | > 64 µM | 5.08 µM | > 12.6 | 0.51 µM | > 64 µM | > 125 | – | –
Nc1ncnc2c1ccn2[C@@H]1O[C@H](CO)[C@@H](O)[C@H]1O [TUBERCIDIN] | 2.23 µM | 0.34 µM | 6.6 | 0.13 µM | 0.13 µM | 1 | – | –
CN(C)c1ncnc2c1ccn2[C@@H]1O[C@H](CO)[C@@H](O)[C@H]1O | 7.06 µM | 1.65 µM | 4.28 | > 64 µM | 64 µM | – | – | –
Nc1ncc2ccn([C@@H]3O[C@H](CO)[C@@H](O)[C@H]3O)c2n1 | > 64 µM | 33.8 µM | > 1.89 | > 64 µM | > 64 µM | – | – | –
CNc1ncnc2c1ccn2[C@H]1O[C@@H](CO)[C@H](O)[C@@H]1O | > 64 µM | 32.3 µM | > 1.98 | > 64 µM | > 64 µM | – | – | –
Nc1ncnc2c1ccn2[C@@H]1O[C@H](CO)C[C@H]1O | > 64 µM | > 64 µM | – | > 64 µM | > 64 µM | – | – | –
C=CCNc1ncnc2c1ccn2[C@@H]1O[C@H](CO)[C@@H](O)[C@H]1O | 8.9 µM | 2.58 µM | 3.45 | 6.01 µM | 8 µM | 1.33 | – | –
CC1CCN(c2ncnc3c2ccn3[C@@H]2O[C@H](CO)[C@@H](O)[C@H]2O)CC1 | > 64 µM | 7.84 µM | > 8.15 | 2.6 µM | 8 µM | 3.08 | – | –
CCCCNc1ncnc2c1ccn2[C@@H]1O[C@H](CO)[C@@H](O)[C@H]1O | > 64 µM | 4.13 µM | > 15.5 | 3.84 µM | > 64 µM | > 16.7 | – | –
